Here are results for three molecules from patent US20130165771A1 (priority 2011, published 2013).

The subject of data set [1] is eye with retinal neovascularization. In words: Comparison of FITC-dextran with Na-fluorescein fundus angiography on the eye with retinal neovascularization (Example 10). The conditions noted are these: monkey eye with retinal neovascularization; following injection of the dye.
Experimental: Materials and Methods: Retinal neovascularization in the eye of the monkey was induced by sub-retinal administration of vascular growth factors (VGF). For Na-fluorescence fundus angiography, the 0.5% of Na-fluorescein solution was injected through the antecubital vein at the dose of 5 mg/kg of the body weight. […] The fundus angiograms were obtained using a regular fluorescence fundus system (Topcon 50 VT).
For data set [2], the system named is eye with CNV complicated with proliferated retinopathy and atrophy of choroidal circulation. In words: Comparison of Na-fluorescein, ICG and FITC-dextran fundus angiography on the eye with proliferative CNV (Example 9, Table 1). The class given is in vivo, rabbit. As to conditions: for morphological detail of the CNV, proliferated retinopathy and atrophy of choroidal circulation on the angiogram: Dutch-belted rabbit, same eye, Na-fluorescein 5 mg/kg, ICG 2.5 mg/kg, FITC-dextran 70 kDa 2.5 mg/kg i.v.; for Clarity of angiography / Neovascularization complex / Duration: Retinal neovascularization / Duration: Normal retinal vessels / Duration: Choroidal neovascularization / Duration: Normal Choroidal vasculatures: Table 1. From the text:
Materials and Methods: the choroidal neovascularization in the eye of Dutch-belted rabbit was induced by sub-retinal injection of vascular growth factors (VGF). The proliferated retinopathy of the choroidal neovascularization membrane and the atrophy of choroidal circulation were the complications of the CNV, occurring at the late stage of the disease. […] The fundus angiograms of IGC were obtained using the fundus image system (Topcon 50 VT) at wavelength of 800 nm.

The subject of data set [3] is eye with choroidal neovascularization complicated with sub-retinal hemorrhage. In words: Comparison on the eye with CNV complicated with sub-retinal hemorrhage (Example 8). The data set is classed as in vivo. The conditions noted are these: rabbit; Na-fluorescein 5 mg/kg i.v.; FITC-dextran 70 kDa 2.5 mg/kg i.v.; same rabbit. The protocol:
Materials and Methods: the choroidal neovascularization in the rabbit eye was induced by sub-retinal injection of vascular growth factors (VGF). The sub-retinal hemorrhage was caused by the pathological changes of the newly grown blood vessels underneath of the retinal. […] The Na-fluorescence fundus angiography and the FITC-dextran fundus angiography, were performed on the same rabbit with one-day interval between these two fundus angiographies.

Data set [4] deals with eye with choroidal neovascularization complicated with retinal detachment. In words: Comparison on the eye with CNV complicated with retinal detachment (Example 7). The class given is in vivo. As to conditions: rabbit; Na-fluorescein 5 mg/kg i.v.; FITC-dextran 70 kDa 2.5 mg/kg i.v.; same rabbit. On the procedure:
Materials and Methods: the choroidal neovascularization in the eye of rabbit was induced by sub-retinal injection of vascular growth factors (VGF). The complicated retinal detachment in the eye was caused by leakage of blood from the choroidal newly grown blood vessels and accumulated in the space of the sub-retinal between the detached retinal and the pigmented layer. […] The Na-fluorescence fundus angiography and the FITC-dextran fundus angiography were performed on the same rabbit with one-day interval between these two fundus angiographies.

In data set [5] the test system is eyes with choroidal neovascularization (CNV). In words: Comparison of FITC-dextran with Na-fluorescein fundus angiography on eyes with CNV (Example 6). The class given is in vivo. The conditions noted are these: rabbit CNV; Na-fluorescein 5 mg/kg i.v.; FITC-dextran 70 kDa 2.5 mg/kg i.v. An excerpt:
Materials and Methods: The choroidal neovascularization (CNV) in rabbit eye was induced by sub-retinal injection of vascular growth factors (VGF).

Data set [6] has as its system serum proteins. The conditions noted are these: in the blood stream; cited from earlier work.
Data set [7] has as its system fundus. As to conditions: following intravenous injection of the dye; clinical practice; cited from earlier work.
The subject of data set [8] is eye with choroidal neovascularization (CNV). In words: FITC-dextran fundus angiography on the eye with choroidal neovascularization (Example 4). The class given is in vivo. The conditions noted are these: pigmented rabbit; CNV induced by sub-retinal vascular growth factors; FITC-dextran 70 kDa, 25 mg/ml, 0.3 ml i.v. On the procedure: Materials and Methods: The choroidal neovascularization (CNV) was induced by sub-retinal injection of vascular growth factors in the eye of pigmented rabbit. […] The volume of 0.3 ml of the solution was injected through marginal vein of the rabbit.

Data set [9] has as its system retinal vasculature and choroidal vasculature. In words: FITC-dextran fundus angiography in normal rabbit eyes (Example 1). The class given is in vivo. The conditions noted are these: naive rabbit; FITC-dextran 70 kDa, 25 mg/ml, 0.3 ml intravenously. From the text:
Materials and Methods: The naive rabbits with bodyweight of 1.8-2.5 kilograms were used for this test.

Data set [10] deals with eye with retinal detachment. In words: FITC-dextran fundus angiography in the eye with retinal detachment (Example 3). The data set is classed as in vivo. The conditions noted are these: pigmented rabbit; detachment induced by sub-retinal Healon; FITC-dextran 70 kDa, 25 mg/ml, 0.3 ml i.v. On the procedure:
Materials and Methods: The retinal detachment was induced by sub-retinal injection of Healon in the eye of pigmented rabbit. […] The volume of 0.3 ml of the solution was injected intravenously through the marginal vein of the rabbit.

Data set [11] deals with choroidal vasculature. In words: Effective image duration of FITC-dextran fundus angiography in rabbit (Example 2). The class given is in vivo. The conditions noted are these: Dutch Belted rabbit, single intravenous injection of FITC-dextran 70 kDa, 25 mg/ml, 0.3 ml. On the procedure:
The volume of 0.3 ml of the solution was injected through the marginal vein of a Dutch Belted rabbit. […] The angiograms of choroidal vasculature were captured using a regular fluorescence fundus image system (Topcon 50 VT).

Data set [12] has as its system retinal pigmental endothelial cells. The conditions noted are these: reported (Kodjikian, et al, 2005; Giuseppe, et al, 2008); cited from earlier work.

In the case of `O=C([O-])c1ccccc1-c1c2ccc(=O)cc-2oc2cc([O-])ccc12.[Na+].[Na+]` [Na-Fluorescein, sodium fluorescein], in data set [1], the effective image duration result is on record as “about two”. In data set [2], the “morphological detail of the CNV, proliferated retinopathy and atrophy of choroidal circulation on the angiogram” value is reported as “without morphological details of the CNV”; the Clarity of angiography result is reported as “good”; the Neovascularization complex result was “poor”. Also, the “Duration: Retinal neovascularization” value in data set [2] (then leak out) was not above 10 s. Also, in data set [2] (then watch out), the “Duration: Normal retinal vessels” value was 2-5 minutes,. Besides, the “morphological detail of the CNV and the hemorrhage on the angiogram” value in data set [3] was “without the morphological details of the CNV and the hemorrhage”. The “morphological detail of the CNV and the retinal detachment on the angiogram” value in [4] was “without the morphological details of the CNV and the detachment”. The “morphological detail of the CNV on the angiogram” value in data set [5] is recorded as “without the morphological detail of the CNV”. Moreover, the “molecules bound to serum proteins” value in data set [6] is reported as 70-80%. The “best effective image duration” value in [7] is “about 5 minutes”.

Take “fluorescein isothiocyanate dextran [FITC-Dextran]”: in data set [8], the “visualization of new blood vessels grown from choroidal” value is “able to visualize the new blood vessels grown from choroidal”. Moreover, the “visualization of retinal vasculature and choroidal vasculature in a same fundus angiogram” value in data set [9] was “able to visualize both retinal vasculature and choroidal vasculature”. Moreover, the “quality of angiograms of the eye with retinal detachment” value in data set [10] was “super clear and high resolution angiograms”. Also, the effective image duration result in data set [11] was “up to 2 hours”. Moreover, in data set [2], the “morphological detail of the CNV, proliferated retinopathy and atrophy of choroidal circulation on the angiogram” value is given as “able to visualize the newly grown blood vessels with details of the CNV”; the Clarity of angiography entry is listed as “best”; the “Duration: Choroidal neovascularization” value was more than 1 h; the “Duration: Normal Choroidal vasculatures” value is more than 1 h. Moreover, in data set [2], the “Duration: Normal retinal vessels” value is more than 1 h, the “Duration: Retinal neovascularization” value was more than 3600 s and the Neovascularization complex entry is reported as “best”. Further, the “morphological detail of the CNV and the hemorrhage on the angiogram” value in data set [3] was “able to provide the morphological nature of the newly grown vasculature complicated with retinal hemorrhage”. For the same molecule, the “morphological detail of the CNV and the retinal detachment on the angiogram” value in [4] was “the morphological nature of the newly grown vasculature and the detachment of the retina were visualized”. In data set [5], the “morphological detail of the CNV on the angiogram” value is reported as “detailed morphological information of the newly grown vasculature was revealed”.

For `CC1(C)C(/C=C/C=C/C=C/C=C2\N(CCCCS(=O)(=O)O)c3ccc4ccccc4c3C2(C)C)=[N+](CCCCS(=O)(=O)[O-])c2ccc3ccccc3c21` [ICG, indocyanine green], the “toxic effects on retinal pigmental endothelial cells and outer portion of the retinal tissues” value in data set [12] is on record as “toxic effects”. In data set [2], the “morphological detail of the CNV, proliferated retinopathy and atrophy of choroidal circulation on the angiogram” value is “able to visualize the structure of the CNV and the injured choroidal vascular networks”; the Clarity of angiography entry was “poor”; the “Duration: Choroidal neovascularization” value fell in the range of 0.05 to 0.083 h; the “Duration: Normal Choroidal vasculatures” value lay within 0.05 to 0.083 h. Moreover, the Neovascularization complex result in data set [2] is “good”. Besides, in data set [6], the “molecules bound to serum proteins” value was 98%.
